The source of these data is article PMC10284550, “Accelerating drug target inhibitor discovery with a deep generative foundation model” (Science Advances, 2023).

Each structure is given as a SMILES string. Like-named read-outs stand apart in the source and are kept apart here.

Assay [1] concerns SARS-CoV-2 pseudotyped lentivirus. The assay is described as follows: microbe, parasite or virus in culture. In kind it is cell-based.
In assay [2] the test system is SARS-CoV-2 Victoria live virus (SARS-CoV-2/human/AUS/VIC01/2020). Kind of assay: microbe, parasite or virus in culture. In kind it is cell-based.
Assay [3] concerns SARS-CoV-2 pseudotyped lentivirus (Victoria). The assay is described as follows: microbe, parasite or virus in culture. In kind it is cell-based. The conditions noted are these: read-out: IC50 pseudoviral neutralization, Victoria.
Assay [4] has as its system SARS-CoV-2 pseudotyped lentivirus (Alpha). The assay is described as follows: microbe, parasite or virus in culture. Type of assay: cell-based. The conditions noted are these: read-out: IC50 pseudoviral neutralization, Alpha.
Assay [5] deals with SARS-CoV-2 pseudotyped lentivirus (Beta). Kind of assay: microbe, parasite or virus in culture. In kind it is cell-based. The conditions noted are these: read-out: IC50 pseudoviral neutralization, Beta.
Assay [6] deals with SARS-CoV-2 pseudotyped lentivirus (Gamma). The assay is described as follows: microbe, parasite or virus in culture. Type of assay: cell-based. The conditions noted are these: read-out: IC50 pseudoviral neutralization, Gamma.
The subject of assay [7] is SARS-CoV-2 pseudotyped lentivirus (Delta). The assay is described as follows: microbe, parasite or virus in culture. In kind it is cell-based. The conditions noted are these: read-out: IC50 pseudoviral neutralization, Delta.
In assay [8] the test system is SARS-CoV-2 pseudotyped lentivirus (Omicron). Kind of assay: microbe, parasite or virus in culture. Type of assay: cell-based. The conditions noted are these: read-out: IC50 pseudoviral neutralization, Omicron.
Assay [9] deals with SARS-CoV-2 Alpha live virus. The assay is described as follows: microbe, parasite or virus in culture. Type of assay: cell-based.
In assay [10] the test system is SARS-CoV-2 Gamma live virus. Kind of assay: microbe, parasite or virus in culture. In kind it is cell-based. The conditions noted are these: Severe acute respiratory syndrome coronavirus 2, read-out: IC50 live virus neutralization, Gamma.
The subject of assay [11] is SARS-CoV-2 Delta live virus. The assay is described as follows: microbe, parasite or virus in culture. In kind it is cell-based.
Assay [12] relates to SARS-CoV-2 Omicron live virus. The assay is described as follows: microbe, parasite or virus in culture. The conditions noted are these: Severe acute respiratory syndrome coronavirus 2, read-out: IC50 live virus neutralization, Omicron. In kind it is cell-based.
In assay [13] the target is T1, SARS-CoV-2 M^pro (Severe acute respiratory syndrome coronavirus 2, UniProt P0DTD1). Kind of assay: biochemical.
The test system of assay [14] is SARS-CoV-2. The conditions noted are these: cited from earlier work.
Assay [15] has as its target T1, SARS-CoV-2 M^pro. Type of assay: binding.
Setting [16] is: Severe acute respiratory syndrome coronavirus 2, HEK293T/17, read-out: IC50, neutralization of SARS-CoV-2 pseudotyped lentivirus.
[17] abbreviates: Severe acute respiratory syndrome coronavirus 2, read-out: IC50, neutralization of Victoria live virus.

`NC(=O)c1ccc(N)cc1OC1CCN(CC(F)(F)F)CC1` [GEN626]: the IC50 in [1] (setting [16]) and in assay [2] (setting [17]) was more than 50 µM in each case.
On to `CS(=O)(=O)c1ccccc1Oc1ccc(-c2ccc(S(N)(=O)=O)cc2)cc1` [GEN725], for which the IC50 was 18.7 µM in [1] (setting [16]) and more than 50 µM in assay [2] (setting [17]).
As to `C#CCN1CCC(CCNc2ccnc3ccccc23)CC1` [GEN727], the IC50 in assay [1] (setting [16]) was 2.8 µM; in assay [1] (read-out: IC50, neutralization of spike-containing pseudovirus across all VOCs), 0.7 to 2.8 µM; in assay [3] it was 2800 ± 1600 nM; in [4], 2400 ± 400 nM; in assay [5], 1100 ± 800 nM; in assay [6], 700 ± 300 nM. For the same compound, the IC50 in assay [7] was 2200 ± 100 nM; in assay [8], 2700 ± 500 nM; in assay [2] (setting [17]), 34.8 ± 2 µM; in [2] (Severe acute respiratory syndrome coronavirus 2, read-out: IC50 live virus neutralization, Victoria), 31.5 ± 2.6 µM; in [2] (read-out: IC50 live virus neutralization, Victoria), less than 50 µM; in [9] (Severe acute respiratory syndrome coronavirus 2, read-out: IC50 live virus neutralization, Alpha), 33.8 ± 1.1 µM. For the same compound, the IC50 in [9] (read-out: IC50 live virus neutralization, Alpha) is less than 50 µM; in assay [10] it was 55.4 ± 8.9 µM; in assay [11] (Severe acute respiratory syndrome coronavirus 2, read-out: IC50 live virus neutralization, Delta), 39.1 ± 7.4 µM; in [11] (read-out: IC50 live virus neutralization, Delta), less than 50 µM; in assay [12] it was 130 ± 1.9 µM.
Consider `Cn1nnnc1C1(c2cccc(Cl)c2)CCC1` [GEN777], for which the IC50 in [1] (setting [16]) and in assay [2] (setting [17]) was more than 50 µM in each case.
In assay [13], `OC1CCN(c2nc(Nc3ccc4c(c3)CCC4)nc(N3CCC(F)(F)CC3)n2)CC1` [GXA70] had an IC50 of 43 µM.
In the case of `CN(c1nc(N2CCOCC2)nc(N2CCc3ccccc32)n1)C1CCC(NS(N)(=O)=O)CC1` (stereo not shown) [GXA112], in [13], the IC50 was found to be 34.2 µM.
Turning to `CS(=O)(=O)c1cccc(C[C@H](NC(=O)c2c(Cl)cc3c(c2Cl)CCN(C(=O)c2ccc4ccoc4c2)C3)C(=O)O)c1` [Lifitegrast], in [14], the “antiviral potency against SARS-CoV-2 in vitro” value was “dose-dependent antiviral potency”.
Consider `CN(Cc1ccc(Cl)c(Cl)c1)c1ccc(S(N)(=O)=O)cn1` [Z68337194], for which, in assay [13], the IC50 was found to be 35.5 µM. The “Binding to M^pro seen in crystal structure” value in [15] is given as “bound in the active site pocket”.
